According to publication PMC6792352, “Limited Chemical Structural Diversity Found to Modulate Thyroid Hormone Receptor in the Tox21 Chemical Library” (Environmental Health Perspectives, 2019):
Structures can show the parent of a compound that is named as a salt. Positions of bridges follow the written chain, without caps; N, C: chain ends. Non-standard residues stand in square brackets, D forms with d. Residues, ends and D or L forms follow the SMILES beside them. *: point of attachment. X3 = CC[C@H](C)CCCCC(=O)*; Dab = NCC[C@H](N)C(=O)O

test: in vitro; details: rat, gh3-tre-luc cells, AC50 (uM) modified / 1000

SMILES	CC50 at 24 h [µM]
CC(=O)OCC(C)OC(C)=O (stereo not shown) [Propylene glycol diacetate]	> 90
CN1CCN(c2c(F)cc3c(=O)c(C(=O)O)cn4c3c2OCN4C)CC1 [Marbofloxacin]	> 50
CC/C=C\CCOC(=O)C(C)C [(3Z)-Hex-3-en-1-yl 2-methylpropanoate]	> 90
C=C(C)C(=O)OCCCCCCOC(=O)C(=C)C [1,6-Hexanediol dimethacrylate]	> 90
CC(=C(CCO)SSCC1CCCO1)N(C=O)Cc1cnc(C)nc1N (stereo in doubt) [Fursultiamine hydrochloride]	> 50
Cc1ccc(C(C)C)cc1 [p-Cymene]	> 90
CNC(=O)c1ccccc1Sc1ccc2c(/C=C/c3ccccn3)n[nH]c2c1 [Axitinib]	> 50
CC(C)NCC(O)c1ccc(NS(C)(=O)=O)cc1 (stereo not shown) [Sotalol hydrochloride]	> 90
CC[C@H](C)CCCCC(=O)N[C@@H](CCN)C(=O)N[C@H](C(=O)N[C@@H](CCN)C(=O)N[C@H]1CCNC(=O)[C@H]([C@@H](C)O)NC(=O)[C@H](CCN)NC(=O)[C@H](CCN)NC(=O)[C@H](CC(C)C)NC(=O)[C@@H](CC(C)C)NC(=O)[C@H](CCN)NC1=O)[C@@H](C)O [Colistin A] (X3-[Dab]T[Dab][Dab][Dab][dL]L[Dab][Dab]T; lactam 4-C)	> 50
O=C(CCc1ccc(O)cc1)c1c(O)cc(O)cc1O [Phloretin]	61.2
O=C(CCCCCCCCCCCCC1CCCC1)Nc1ccc(S(=O)(=O)c2ccc(NC(=O)CCCCCCCCCCCCC3CCCC3)cc2)cc1 [Chaulmosulfone]	> 50
CCC(CO)(CO)COCC(CC)(CO)CO [2,2'-(Oxydimethanediyl)bis(2-ethylpropane-1,3-diol)]	> 90
C[Si]1(C)O[Si](C)(C)O[Si](C)(C)O1 [Hexamethylcyclotrisiloxane]	> 90
Cn1c(CCCC(=O)O)nc2cc(N(CCCl)CCCl)ccc21 [Bendamustine]	> 50
CO[C@@H]1[C@@H](OC)[C@H](C)[C@@](O)(CC(=O)O)O[C@H]1[C@H](C)[C@H]1O[C@@]2(CC[C@@](C)([C@H]3CC[C@@](C)([C@@H]4O[C@@H]([C@H]5O[C@](C)(O)[C@H](C)C[C@@H]5C)C[C@@H]4O[C@@H]4C[C@H](OC)[C@@H](OC)[C@H](C)O4)O3)O2)C[C@H](O)[C@H]1C [Maduramicin ammonium]	0.49
CC(=O)Nc1nnc(S(N)(=O)=O)s1 [Acetazolamide]	> 90
C=CC(=O)OCCCCCC(C)C [Isooctyl acrylate]	> 100
CN=C(N)NC(=O)Nc1c(C)cccc1C [Lidamidine]	> 50
C[C@H]1NCc2cc(-c3ccc4c(=O)c(C(=O)O)cn(C5CC5)c4c3OC(F)F)ccc21 [Garenoxacin mesylate hydrate]	> 50
Cc1c(C(=O)c2c[nH]n(C)c2=O)ccc(S(C)(=O)=O)c1C1=NOCC1 [Topramezone]	> 40
OCc1ccccc1 [Benzyl alcohol]	> 90
O=c1cccccc1O [Tropolone]	22.1

SMILES	CC50 at 24 h [µM]
COc1ccc(C2CNC(=O)C2)cc1OC1CCCC1 (stereo not shown) [Rolipram]	> 20
CN1C(=S)CN=C(c2ccccc2)c2cc(Cl)ccc21 [Sulazepam]	> 50
CN1CC(O)C2=C/C(=N/NC(N)=O)C(=O)C=C21 (stereo not shown) [Carbazochrome]	> 50
c1ccc(C2(c3ccccc3)CC2C2=NCCN2)cc1 (stereo not shown) [Cifenline succinate]	> 50
CC(C)c1ccc(C#N)cc1 [4-Isopropylbenzonitrile]	> 90
Cc1cc(C(C#N)c2ccc(Cl)cc2)c(Cl)cc1NC(=O)c1cc(I)cc(I)c1O (stereo not shown) [Closantel]	25
O=C(Cl)c1c(Cl)c(Cl)c(C(=O)Cl)c(Cl)c1Cl [2,3,5,6-Tetrachlorobenzene-1,4-dicarbonyl dichloride]	> 90
Cc1c(C)c2c(c(C)c1O)CC[C@@](C)(CCC[C@H](C)CCC[C@H](C)CCCC(C)C)O2 [alpha-Vitamin E]	> 50
[O-][n+]1cccc(CO)c1 [Mepiroxol]	> 50
CN(C)Cc1cc(CN(C)C)c(O)c(CN(C)C)c1 [2,4,6-Tris(dimethylaminomethyl)phenol]	> 90
CCC(C(=O)OCCN(CC)CC)c1ccccc1 (stereo not shown) [Butetamate]	> 50
CCCCCCCCCCCCCCCCCCO [1-Octadecanol]	> 50
CNc1c2c(nn1C)CCCC2 [Tetridamine]	> 50
OCCOc1ccccc1 [2-Phenoxyethanol]	> 90
Clc1ccc2cc3ccccc3cc2c1 [2-Chloroanthracene]	> 90
C[C@@H]1C[C@H]2[C@@H]3CCC4=CC(=O)C=C[C@]4(C)[C@@]3(F)[C@@H](O)C[C@]2(C)[C@@]1(O)C(=O)CO [Dexamethasone]	> 90
O=C(O)CONC(=O)c1ccccc1 [Benzadox]	> 90
CC(C)NCC1CCc2cc(CO)c([N+](=O)[O-])cc2N1 (stereo not shown) [Oxamniquine]	> 20
Cc1ncc([N+](=O)[O-])n1C [1,2-Dimethyl-5-nitroimidazole]	> 90
CC1COC(=O)O1 (stereo not shown) [Propylene carbonate]	> 90
O=C1CCCCCCCCCCC(=O)OCCO1 [1,4-Dioxacyclohexadecane-5,16-dione]	> 90
O=C1CCCCCCCCCCCCCCCO1 [Oxacycloheptadecan-2-one]	> 90

SMILES	CC50 at 24 h [µM]
CCCN(C1CCN(C(=O)C2CCNCC2)CC1)[C@@H]1CCc2ccc(OC)cc2C1 [PharmaGSID_48509]	69.1
CCCCCCCC/C=C\CCCCCCCC(=O)OCCOC(=O)CCCCCCC/C=C\CCCCCCCC [Polyethylene glycol dioleate]	> 100
CCCCCCCCCCOC(=O)c1ccccc1C(=O)OCCCCCCCCCC [Didecyl phthalate]	> 90
OC[C@H]1OC(O)[C@H](O)[C@@H](O)[C@@H]1O (stereo partly drawn) [D-Glucose]	> 90
OC(c1ccc(Cl)cc1)(c1ccc(Cl)cc1)c1cccnc1 [Parinol]	64.3
C=CC(=O)NC(C)(C)CS(=O)(=O)O [2-Acrylamido-2-methyl-1-propanesulfonic acid]	> 90
N#CC1(N=NC2(C#N)CCCCC2)CCCCC1 [1,1'-Diazene-1,2-diyldicyclohexanecarbonitrile]	> 90
NCC(CC(=O)O)c1ccc(Cl)cc1 (stereo not shown) [Baclofen]	> 50
COc1cc(/C=C2\CCC/C(=C\c3ccc(O)c(OC)c3)C2=O)ccc1O [Cyclovalone]	7.98
NC(=O)c1ccc([N+](=O)[O-])cc1Cl [2-Chloro-4-nitrobenzamide]	> 90
CN1CCN(CCCN2c3ccccc3Sc3ccccc32)CC1 [Perazine]	16.5
c1ccc2sc(SNC3CCCCC3)nc2c1 [N-Cyclohexyl-2-benzothiazolesulfenamide]	> 90
CCCCC(CC)COC(=O)c1ccc(N(C)C)cc1 (stereo not shown) [2-Ethylhexyl 4-(dimethylamino)benzoate]	> 90
CCCCCCOC(C)=O [Hexyl acetate]	> 90
CC(=O)c1ccc2ccccc2c1 [2'-Acetonaphthone]	> 90
Cc1c(N)cccc1[N+](=O)[O-] [2-Methyl-3-nitroaniline]	> 90
N#Cc1c2ccccc2cc2ccccc12 [9-Cyanoanthracene]	> 90
FC(F)(F)c1ccc(Cl)cc1 [1-Chloro-4-(trifluoromethyl)benzene]	> 90
O=C(O)CN(CC(=O)O)Cc1cc2c(cc1O)Oc1cc(O)c(CN(CC(=O)O)CC(=O)O)cc1C21OC(=O)c2ccccc21 [Oftasceine]	> 50
CN(C)CCc1c[nH]c2ccc(Cn3cncn3)cc12 [Rizatriptan]	> 50
O=[N+]([O-])c1ccc2c3c(cccc13)CC2 [5-Nitroacenaphthene]	> 90

same assay, conditions: rat, gh3-tre-luc cells, AC50 (uM) modified / 1000, Tox21_110001=Tox21_110766; viability, 1 nM T3 present, 24 h

SMILES	CC50 at 24 h [µM]
COc1ccc2c(c1)[C@]13CCCC[C@@H]1[C@H](C2)N(C)CC3 [Dextromethorphan hydrobromide monohydrate]	> 50

same assay, conditions: rat, gh3-tre-luc cells, AC50 (uM) modified / 1000, Tox21_110001=Tox21_111521; viability, 1 nM T3 present, 24 h

SMILES	CC50 at 24 h [µM]
C[C@@H]([C@H](O)c1ccccc1)N(C)C [Methylephedrine]	> 50

same assay, conditions: rat, gh3-tre-luc cells, AC50 (uM) modified / 1000, Tox21_110001=Tox21_112620; viability, 1 nM T3 present, 24 h

SMILES	CC50 at 24 h [µM]
CCC(=O)O[C@]1(c2ccccc2)CCN(C)C[C@H]1C [Betaprodine]	> 50

same assay, conditions: rat, gh3-tre-luc cells, AC50 (uM) modified / 1000, Tox21_110001=Tox21_113494; viability, 1 nM T3 present, 24 h

SMILES	CC50 at 24 h [µM]
COc1cc(CC(C)N)c(OC)cc1Br (stereo not shown) [Brolamfetamine hydrobromide]	25.6

same assay, conditions: rat, gh3-tre-luc cells, AC50 (uM) modified / 1000, Tox21_110001=Tox21_201194; viability, 1 nM T3 present, 24 h

SMILES	CC50 at 24 h [µM]
CNNC [1,2-Dimethylhydrazine dihydrochloride]	> 90

same assay, conditions: rat, gh3-tre-luc cells, AC50 (uM) modified / 1000, Tox21_110001=Tox21_201828; viability, 1 nM T3 present, 24 h

SMILES	CC50 at 24 h [µM]
Sc1nc2ccccc2[nH]1 [2-Mercaptobenzimidazole]	> 90

same assay, conditions: rat, gh3-tre-luc cells, AC50 (uM) modified / 1000, Tox21_110001=Tox21_201860; viability, 1 nM T3 present, 24 h

SMILES	CC50 at 24 h [µM]
CCCN(CCC)N=O [N-Nitrosodipropylamine]	> 90

same assay, conditions: rat, gh3-tre-luc cells, AC50 (uM) modified / 1000, Tox21_110001=Tox21_202250; viability, 1 nM T3 present, 24 h

SMILES	CC50 at 24 h [µM]
COP(N)(=O)SC (stereo not shown) [Methamidophos]	> 90

same assay, conditions: rat, gh3-tre-luc cells, AC50 (uM) modified / 1000, Tox21_110001=Tox21_202465; viability, 1 nM T3 present, 24 h

SMILES	CC50 at 24 h [µM]
ClCC(Cl)Cl [1,1,2-Trichloroethane]	> 90

same assay, conditions: rat, gh3-tre-luc cells, AC50 (uM) modified / 1000, Tox21_110001=Tox21_300794; viability, 1 nM T3 present, 24 h

SMILES	CC50 at 24 h [µM]
CCOP(=S)(OCC)SC(CCl)N1C(=O)c2ccccc2C1=O (stereo not shown) [Dialifor]	> 90

same assay, conditions: rat, gh3-tre-luc cells, AC50 (uM) modified / 1000, Tox21_110001=Tox21_300822; viability, 1 nM T3 present, 24 h

SMILES	CC50 at 24 h [µM]
COC(=O)c1c(C(F)F)nc(C(F)(F)F)c(C2=NCCS2)c1CC(C)C [Thiazopyr]	> 90
